Measurements: patent US8496967B2, “Oral formulations” (ARIAD Pharmaceuticals, Inc., priority 2006, dated 2013)

How the values were obtained:
[1] = tested on: human tumor cell lines, including prostate, endometrial, soft tissue and bone sarcoma, leukemia, lymphoma and glioblastoma cell lines; assay: in vitro proliferation of human tumor cell lines; format: cell-based
[2] = tested on: human tumor cell lines, including prostate, endometrial, soft tissue and bone sarcoma, leukemia, lymphoma and glioblastoma cell lines; assay: in vivo xenograft models of human tumor cell lines
[3] = study of the degradation of AP23573; format: physicochemical

CO[C@H]1C[C@@H]2CC[C@@H](C)[C@@](O)(O2)C(=O)C(=O)N2CCCC[C@H]2C(=O)O[C@H]([C@H](C)C[C@@H]2CC[C@@H](OP(C)(C)=O)[C@H](OC)C2)CC(=O)[C@H](C)/C=C(\C)[C@@H](O)[C@@H](OC)C(=O)[C@H](C)C[C@H](C)/C=C/C=C/C=C/1C [AP23573, 43-dimethylphosphinate ester of rapamycin]
inhibition of proliferation of human tumor cell lines [1]: potently inhibited proliferation | inhibition of proliferation of human tumor cell lines [2]: potently inhibited proliferation | aqueous degradation ([3]; aqueous, forms ring opened seco-AP23573): undergoes aqueous degradation via cleavage of a lactone bond | oxidative degradation pathway ([3]; oxidation): oxidation of the compound's triene moiety
